Measured values reported in ChEMBL document CHEMBL4421722, “Inhibitors of protein prenyltransferases” (2013).
Each block holds one compound with its values, some of them ahead of it.

How the values were obtained:
[1] = Inhibition of rat recombinant geranylgeranyltransferase type I expressed in Escherichia coli assessed as reduction in geranylgeranylation of RhoA incubated for 30 mins in presence of [3H]GGPP by scintillation counting assay relative to control
Jurkat = assay: Antiproliferative activity against human Jurkat cells assessed as inhibition of cell proliferation incubated for 72 hrs by CCK8 assay; format: functional, cell-based
K562 = assay: Antiproliferative activity against human K562 cells assessed as inhibition of cell proliferation incubated for 72 hrs by CCK8 assay; format: functional, cell-based; conditions: K562, 72 h
Rattus norvegicus [2] = organism: Rattus norvegicus; assay: Inhibition of rat recombinant geranylgeranyltransferase type I expressed in Escherichia coli assessed as residual enzyme activity for geranylgeranylation of K-Ras4B at 50 uM incubated for 30 mins in presence of [3H]GGPP by scintillation counting assay relative to control
Rattus norvegicus [3] = organism: Rattus norvegicus; assay: Inhibition of rat recombinant geranylgeranyltransferase type I expressed in Escherichia coli assessed as residual enzyme activity for geranylgeranylation of RhoA at 50 uM incubated for 30 mins in presence of [3H]GGPP by scintillation counting assay relative to control
[4] = molecular target: T1, Geranylgeranyl transferase type-2 (Homo sapiens, UniProt P53611+Q92696); assay: Inhibition of RabGGTase (unknown origin) using YPTI as substrate protein and [3H]geranylgeranyl pyrophosphate incubated for 20 mins by scintillation counting assay; format: protein-complex assay
T1 sequence (P53611 whole entry): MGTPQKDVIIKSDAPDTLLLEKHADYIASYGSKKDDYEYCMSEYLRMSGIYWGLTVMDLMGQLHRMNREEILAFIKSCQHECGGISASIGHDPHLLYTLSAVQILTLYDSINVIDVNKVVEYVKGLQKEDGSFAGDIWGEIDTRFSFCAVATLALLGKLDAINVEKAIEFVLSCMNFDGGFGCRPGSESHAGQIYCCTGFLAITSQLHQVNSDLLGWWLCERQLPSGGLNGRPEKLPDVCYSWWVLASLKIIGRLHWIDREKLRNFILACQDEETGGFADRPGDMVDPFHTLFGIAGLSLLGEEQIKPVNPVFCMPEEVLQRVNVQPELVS
T1 sequence (Q92696 whole entry): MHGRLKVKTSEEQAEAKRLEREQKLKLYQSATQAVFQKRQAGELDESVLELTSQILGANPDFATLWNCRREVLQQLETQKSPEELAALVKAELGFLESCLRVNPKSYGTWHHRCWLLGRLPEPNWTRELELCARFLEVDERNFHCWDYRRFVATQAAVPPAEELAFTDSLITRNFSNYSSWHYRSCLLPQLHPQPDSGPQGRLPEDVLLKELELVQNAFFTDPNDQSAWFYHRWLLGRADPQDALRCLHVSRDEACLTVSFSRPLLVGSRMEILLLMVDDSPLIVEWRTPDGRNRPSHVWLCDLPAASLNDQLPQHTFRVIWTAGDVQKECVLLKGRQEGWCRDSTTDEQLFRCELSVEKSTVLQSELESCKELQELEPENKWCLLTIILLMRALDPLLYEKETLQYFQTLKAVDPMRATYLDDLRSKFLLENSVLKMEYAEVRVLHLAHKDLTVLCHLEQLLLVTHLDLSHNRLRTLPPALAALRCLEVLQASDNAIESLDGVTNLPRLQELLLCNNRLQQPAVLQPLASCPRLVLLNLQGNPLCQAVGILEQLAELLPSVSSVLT

[5] = molecular target: Protein farnesyltransferase (Rattus norvegicus, UniProt Q02293+Q04631); assay: Inhibition of rat recombinant FTase alpha/beta expressed in Escherichia coli using K-Ras4B as a substrate as and [3H]farnesyl pyrophosphate incubated for 30 mins by scintillation counting assay
MIA PaCa-2 = assay: Antiproliferative activity against human MIAPaCa2 cells assessed as inhibition of cell proliferation incubated for 72 hrs by CCK8 assay; format: functional, cell-based; conditions: MIA PaCa-2, 72 h
ASPC1 = assay: Antiproliferative activity against human AsPC1 cells assessed as inhibition of cell proliferation incubated for 6 days by CCK8 assay; format: functional, cell-based; conditions: ASPC1, 144 h
Capan-2 = assay: Antiproliferative activity against human Capan2 cells assessed as inhibition of cell proliferation incubated for 72 hrs by CCK8 assay; format: functional, cell-based; conditions: Capan-2, 72 h
CFPAC-1 = assay: Antiproliferative activity against human CFPAC-1 cells assessed as inhibition of cell proliferation incubated for 72 hrs by CCK8 assay; format: functional, cell-based; conditions: CFPAC-1, 72 h
[6] = Inhibition of rat recombinant geranylgeranyltransferase type I expressed in Escherichia coli assessed as reduction in geranylgeranylation of K-Ras4B incubated for 30 mins in presence of [3H]GGPP by scintillation counting assay

Structure (SMILES): COC(=O)[C@H](Cc1ccccc1)NC(=O)C1=C[C@@H](C(C)(C)C)N(S(=O)(=O)c2ccccc2C)[C@H]1c1ccc(Cl)cc1
- IC50 [1]: > 50 µM
- GI50 (K562): 14 to 17 µM
- IC50 (K562): 10.5 µM
- GI50 (Jurkat): 10.5 to 19 µM

Structure (SMILES): CC(C)(C)OC(=O)CCS[C@H]1[C@@H](C(=O)O)[C@H](c2ccc(Cl)cc2)N(S(=O)(=O)c2ccc(Cl)cc2)[C@@H]1CC1CCCC1
- Activity (Rattus norvegicus [2]): 22.5%
- Activity (Rattus norvegicus [3]): 9.8%
- IC50 [1]: 8.9 µM
- IC50 [4]: 3.1 µM
- IC50 [5]: > 100 µM

Structure (SMILES): CCCCCS[C@H]1[C@@H](C(=O)O)[C@H](c2ccc(Br)cc2)N(S(=O)(=O)c2ccc(C)cc2)[C@@H]1CCC
- IC50 [1]: > 50 µM
- IC50 [4]: 3.6 µM
- IC50 [5]: > 100 µM

Structure (SMILES): Cc1ccccc1S(=O)(=O)N1[C@@H](c2ccc(Cl)cc2)C(C(N)=O)=C[C@H]1C(C)(C)C
- IC50 (K562): 11 µM

Structure (SMILES): Cc1ccccc1S(=O)(=O)N1[C@@H](c2cccc(Cl)c2)C(CO)=CC[C@H]1c1ccc(Cl)cc1
- IC50 [1]: > 100 µM
- GI50 (K562): 5.8 µM
- GI50 (Jurkat): 7.5 µM

Structure (SMILES): CCOC(=O)C1=C[C@@H](C(C)(C)C)N(S(=O)(=O)c2ccccc2C)[C@H]1c1ccc(Cl)cc1
- IC50 (K562): > 25 µM

Structure (SMILES): Cc1ccccc1S(=O)(=O)N1[C@@H](c2ccc(Cl)cc2)C(C(=O)N[C@@H](Cc2ccccc2)C(=O)O)=C[C@H]1C(C)(C)C
- GI50 (MIA PaCa-2): 7.48 µM
- GI50 (ASPC1): 12.4 µM
- GI50 (Capan-2): 11.5 µM
- GI50 (CFPAC-1): 6.38 µM

Structure (SMILES): CCCCCCS[C@H]1[C@@H](C(=O)O)[C@H](c2ccc(Cl)c(Cl)c2)N(S(=O)(=O)c2ccc(C)cc2)[C@@H]1CCC
- IC50 [1]: 5.1 µM
- IC50 [4]: 7 µM
- IC50 [5]: > 100 µM

Structure (SMILES): Cc1ccc(S(=O)(=O)N2[C@H](C)C=C(C(=O)O)[C@@H]2c2ccc(Cl)c(Cl)c2)cc1
- IC50 [6]: 38 µM
- IC50 [1]: 45 µM

Structure (SMILES): COC(=O)[C@H](CC(C)C)NC(=O)C1=CC[C@@H](c2ccc(Cl)cc2)N(S(=O)(=O)c2ccccc2C)[C@H]1c1cccc(Cl)c1
- IC50 [1]: 20 to 50 µM
- GI50 (Jurkat): 3.53 to 6.1 µM

Structure (SMILES): CC(C)(C)[C@@H]1C=C(C(=O)N[C@@H](Cc2ccccc2)C(N)=O)[C@H](c2ccc(Cl)c(Cl)c2)N1S(=O)(=O)C(C)(C)C
- IC50 [1]: 2.7 to 50 µM
- GI50 (K562): 4.22 to 5.9 µM
- GI50 (Jurkat): 4.57 to 5.91 µM

Structure (SMILES): COC(=O)[C@H](Cc1ccccc1)NC(=O)COCC1=C[C@@H](C(C)(C)C)N(S(=O)(=O)c2ccccc2C)[C@H]1c1ccc(Cl)cc1
- IC50 [1]: 2.1 to 20 µM
- IC50 (K562): 5.8 to 6.01 µM
- GI50 (Jurkat): 3.51 to 5.1 µM

Structure (SMILES): CC(C)(C)[C@@H]1C=C(C(=O)O)[C@H](c2ccccc2)N1S(C)(=O)=O
- IC50 [6]: 15 µM
- IC50 [1]: 23 µM

Results, then the compound that gave them:

- IC50 [1]: > 20 µM
- GI50 (Jurkat): 5.36 µM
Structure (SMILES): Cc1ccccc1S(=O)(=O)N1[C@@H](c2cccc(Cl)c2)C(C(N)=O)=CC[C@H]1c1ccc(Cl)cc1

- Activity (Rattus norvegicus [2]): 23.7%
- Activity (Rattus norvegicus [3]): 9.1%
- IC50 [6]: 18 µM
- IC50 [1]: 23 µM
Structure (SMILES): Cc1ccc(S(=O)(=O)N2[C@@H](c3cccc(F)c3)C(C(=O)O)=C[C@H]2C(C)(C)C)cc1

- IC50 [1]: 6.9 to 32.9 µM
- GI50 (K562): 1.7 to 10.2 µM
- GI50 (Jurkat): 0.32 to 1.76 µM
Structure (SMILES): CC(C)C[C@H](NC(=O)C1=CC[C@@H](c2cccc(Br)c2)N(S(=O)(=O)c2ccc(F)cc2)[C@H]1c1cccc(Cl)c1)C(N)=O

- IC50 [6]: 20 µM
- IC50 [1]: 30 µM
Structure (SMILES): Cc1ccc(S(=O)(=O)N2[C@H](C)C=C(C(=O)O)[C@@H]2c2cccc(Cl)c2)cc1

- IC50 [6]: 250 µM
- IC50 [1]: 200 µM
Structure (SMILES): CC[C@@H]1C=C(C(=O)O)[C@H](c2ccc(F)cc2)N1S(=O)(=O)c1ccc(C)cc1

- IC50 [6]: 80 µM
- IC50 [1]: 120 µM
Structure (SMILES): Cc1ccc(S(=O)(=O)N2[C@@H](c3ccccc3)C(C(=O)O)=CC[C@H]2c2ccc(F)cc2)cc1

- IC50 [1]: 0.256 µM
Structure (SMILES): Cc1cccc([C@H]2C(C(=O)O)=CC[C@@H](c3cccc(Br)c3)N2S(=O)(=O)c2ccc(Cl)cc2)c1

- IC50 [1]: 0.155 to 0.169 µM
Structure (SMILES): O=C(O)C1=CC[C@@H](c2cccc(Cl)c2)N(S(=O)(=O)c2ccc(Br)cc2)[C@H]1c1cccc(Br)c1
